Data reported in US10654828B2 (NOVARTIS AG, priority 2017, dated 2020).
Read-outs that look alike come from different tables or passages of the source.

What was measured:
AKT = AKT activation: Phospho-AKT (Ser473) antibody staining in reporter cells; format: cell-based; settings: U2OS GFP-FoxO3a H212R cells, serum starved overnight, compound 30 minutes, total cellular intensity of Phospho-AKT (Ser473) staining, DMSO control 0%
Procedure: (§1) Phosphorylation of AKT on S473 and FoxO3a nuclear to cytoplasmic translocation were used as readouts of PI3K/Akt/mTOR pathway activation downstream of growth factor signaling.
(§2) Reporter cell line. U2OS GFP-FoxO3a H212R reporter cell line was established by transducing U2OS cells with the retroviral plasmid pLEGFP-C1 containing FoxO3a H212R transgene and selecting for G418 resistant clones.
(§3) Reporter assay. U2OS GFP-FoxO3a H212R cells were plated in 384-well plates at 4000 cells per well in 30 microliters of McCoy's 5 A medium containing 10% FBS. On day 1 the cells were washed with serum free medium and serum starved overnight. On day 2 the cells were treated with different doses of the compounds for 30 minutes, fixed with 4% Paraformaldehyde for 1 hour and stained with Phospho-AKT (Ser473) antibody (Cell Signaling Technology, catalog #4060) overnight at 4 degrees Celsius. After nuclei staining with Hoechst 33342 (Life Technologies, catalog # H3570) the plates were imaged with InCell 2000 (GE Healthcare Bio-Sciences). FoxO3a inhibition activity is calculated as the ratio of nuclear to cytosolic GFP intensity in percent. AKT activation is measured as the total cellular intensity of Phospho-AKT antibody staining in percent. DMSO control is set as 0% activity.

FoxO3a = FoxO3a inhibition: GFP-FoxO3a nuclear to cytoplasmic translocation reporter assay; format: cell-based; settings: U2OS GFP-FoxO3a H212R cells, serum starved overnight, compound 30 minutes, ratio of nuclear to cytosolic GFP intensity, DMSO control 0%, read-out: FoxO AC50
Procedure: as §1, §2, §3

For `Cc1cc(C(N)=O)nn1-c1ccc2c(ccn2Cc2ccc(-c3ccc4cnn(C)c4c3)cc2)c1` [Example 1-22, 5-methyl-1-(1-(4-(1-methyl-1H-indazol-6-yl)benzyl)-1H-indol-5-yl)-1H-pyrazole-3-carboxamide], the AC50 (AKT; Homo sapiens, U2OS, 0.5 h) was 507 nM and the AC50 (FoxO3a; Homo sapiens, U2OS, 0.5 h) was 167 nM.

In the case of `Cc1cc(C(N)=O)nn1-c1ccc2c(ccn2Cc2ccc(-c3ccc4cnccc4c3)cc2)c1` [Example 1-18, 1-(1-(4-(isoquinolin-6-yl)benzyl)-1H-indol-5-yl)-5-methyl-1H-pyrazole-3-carboxamide], the AC50 (AKT; Homo sapiens, U2OS, 0.5 h) is reported as 352 nM and the AC50 (FoxO3a; Homo sapiens, U2OS, 0.5 h) is reported as 95 nM.

For `Cc1cc(C(N)=O)nn1-c1ccc2c(ccn2Cc2ccc(C3=CCN(C)CC3C)cc2)c1` (single isomer, unassigned) [Example 17-3, 1-(1-(4-(1,3-dimethyl-1,2,3,6-tetrahydropyridin-4-yl)benzyl)-1H-indol-5-yl)-5-methyl-1H-pyrazole-3-carboxamide], the AC50 (AKT) was 840 nM and the AC50 (FoxO3a) was 251 nM.

Compound `Cc1cc(C(N)=O)nn1-c1ccc2c(ccn2Cc2ccc(-c3ccc(CN4CCN(C)CC4)cc3)cc2)c1` [Example 34-3, 5-methyl-1-(1-((4′-((4-methylpiperazin-1-yl)methyl)-[1,1′-biphenyl]-4-yl)methyl)-1H-indol-5-yl)-1H-pyrazole-3-carboxamide] has an AC50 (AKT; Homo sapiens, U2OS, 0.5 h) of 266 nM and an AC50 (FoxO3a; Homo sapiens, U2OS, 0.5 h) of 131 nM.

In the case of `Cc1nc(C(N)=O)nn1-c1ccc2c(ccn2Cc2ccc([C@@H]3C[C@@H]4CN(C)C[C@@H]4C3)cc2)c1` [Example 27, 5-methyl-1-(1-(4-((3aR,5r,6aS)-2-methyloctahydrocyclopenta[c]pyrrol-5-yl)benzyl)-1H-indol-5-yl)-1H-1,2,4-triazole-3-carboxamide], the AC50 (AKT; Homo sapiens, U2OS, 0.5 h) is reported as 947 nM and the AC50 (FoxO3a; Homo sapiens, U2OS, 0.5 h) is reported as 224 nM.

Work on `Cc1cc(C(N)=O)nn1-c1ccc2c(ccn2Cc2ccc(-c3ccncc3)cc2)c1` [Example 1-2, 5-methyl-1-(1-(4-(pyridin-4-yl)benzyl)-1H-indol-5-yl)-1H-pyrazole-3-carboxamide] yielded an AC50 (FoxO3a; Homo sapiens, U2OS, 0.5 h) of 102 nM.

`Cc1cc(C(N)=O)nn1-c1ccc2c(ccn2Cc2ccc(-c3ccc(C(C)(C)O)nc3)cc2)c1` [Example 30-3, 1-(1-(4-(6-(2-hydroxypropan-2-yl)pyridin-3-yl)benzyl)-1H-indol-5-yl)-5-methyl-1H-pyrazole-3-carboxamide] gave an AC50 (AKT; Homo sapiens, U2OS, 0.5 h) of 572 nM and an AC50 (FoxO3a; Homo sapiens, U2OS, 0.5 h) of 126 nM.

In the case of `Cc1cc(C(N)=O)nn1-c1ccc2c(c1)c(CCCO)cn2Cc1ccc(-c2ccc(S(C)(=O)=O)cc2)cc1` [Example 22, 1-(3-(3-hydroxypropyl)-1-((4′-(methylsulfonyl)-[1,1′-biphenyl]-4-yl)methyl)-1H-indol-5-yl)-5-methyl-1H-pyrazole-3-carboxamide], the AC50 (AKT; Homo sapiens, U2OS, 0.5 h) is reported as 81 nM and the AC50 (FoxO3a; Homo sapiens, U2OS, 0.5 h) is reported as 32 nM.

In the case of `Cc1cc(C(N)=O)nn1-c1ccc2c(c1)c(C1=CCN(C)CC1)cn2Cc1ccc(-c2ccc(S(C)(=O)=O)cc2)cc1` [Example 19-2, 5-methyl-1-(3-(1-methyl-1,2,3,6-tetrahydropyridin-4-yl)-1-((4′-(methylsulfonyl)-[1,1′-biphenyl]-4-yl)methyl)-1H-indol-5-yl)-1H-pyrazole-3-carboxamide], the AC50 (AKT; Homo sapiens, U2OS, 0.5 h) is reported as 1020 nM and the AC50 (FoxO3a; Homo sapiens, U2OS, 0.5 h) is reported as 346 nM.

For `Cc1cc(C(N)=O)nn1-c1ccc2c(ccn2Cc2ccc(C3=CCN(C)CC3C)cc2)c1` (stereo not shown) [Example 17-1, 1-(1-(4-(1,3-dimethyl-1,2,3,6-tetrahydropyridin-4-yl)benzyl)-1H-indol-5-yl)-5-methyl-1H-pyrazole-3-carboxamide], the AC50 (AKT; Homo sapiens, U2OS, 0.5 h) was 460 nM and the AC50 (FoxO3a; Homo sapiens, U2OS, 0.5 h) was 102 nM.

Compound `Cc1cc(C(N)=O)nn1-c1ccc2c(ccn2Cc2ccc(-c3ccc4cc[nH]c4c3)cc2)c1` [Example 1-21, 1-(1-(4-(1H-indol-6-yl)benzyl)-1H-indol-5-yl)-5-methyl-1H-pyrazole-3-carboxamide] has an AC50 (AKT; Homo sapiens, U2OS, 0.5 h) of 2970 nM and an AC50 (FoxO3a; Homo sapiens, U2OS, 0.5 h) of 420 nM.

In the case of `Cc1cc(C(N)=O)nn1-c1ccc2c(ccn2Cc2ccc([C@@H]3C[C@@H]4CN(CCS(C)(=O)=O)C[C@@H]4C3)cc2)c1` [Example 42, 5-Methyl-1-(1-(4-((3aR,5r,6aS)-2-(2-(methylsulfonyl)ethyl)octahydrocyclopenta[c]pyrrol-5-yl)benzyl)-1H-indol-5-yl)-1H-pyrazole-3-carboxamide], the AC50 (AKT; Homo sapiens, U2OS, 0.5 h) is reported as 230 nM and the AC50 (FoxO3a; Homo sapiens, U2OS, 0.5 h) is reported as 69 nM.

`Cc1cc(C(N)=O)nn1-c1ccc2c(ccn2Cc2ccc(-c3ccc(N(C)C)nc3)cc2)c1` [Example 1-23, 1-(1-(4-(6-(dimethylamino)pyridin-3-yl)benzyl)-1H-indol-5-yl)-5-methyl-1H-pyrazole-3-carboxamide] was tested, and the AC50 (AKT; Homo sapiens, U2OS, 0.5 h) was 293 nM and the AC50 (FoxO3a; Homo sapiens, U2OS, 0.5 h) was 93 nM.

In the case of `Cc1cc(C(N)=O)nn1-c1ccc2c(ccn2Cc2ccc(-c3ccc(CN4CCC[C@@H]4CO)cc3)cc2)c1` [Example 34-2, (R)-1-(1-((4′-((2-(hydroxymethyl)pyrrolidin-1-yl)methyl)-[1,1′-biphenyl]-4-yl)methyl)-1H-indol-5-yl)-5-methyl-1H-pyrazole-3-carboxamide], the AC50 (AKT; Homo sapiens, U2OS, 0.5 h) is reported as 3 nM and the AC50 (FoxO3a; Homo sapiens, U2OS, 0.5 h) is reported as 42 nM.

For `Cc1cc(C(N)=O)nn1-c1ccc2c(ccn2Cc2ccc(C3=CCN(C)CC3)cc2)c1` [Example 1-1, 5-methyl-1-(1-(4-(1-methyl-1,2,3,6-tetrahydropyridin-4-yl)benzyl)-1H-indol-5-yl)-1H-pyrazole-3-carboxamide], the AC50 (AKT; Homo sapiens, U2OS, 0.5 h) was 138 nM and the AC50 (FoxO3a; Homo sapiens, U2OS, 0.5 h) was 53 nM.

With `Cc1cc(C(N)=O)nn1-c1ccc2c(ccn2Cc2ccc([C@@H]3C[C@@H]4CN(C)C[C@@H]4C3)cc2)c1` [Example 26-1, 5-methyl-1-(1-(4-((3aR,5r,6aS)-2-methyloctahydrocyclopenta[c]pyrrol-5-yl)benzyl)-1H-indol-5-yl)-1H-pyrazole-3-carboxamide] the AC50 (AKT; Homo sapiens, U2OS, 0.5 h) was 314 nM and the AC50 (FoxO3a; Homo sapiens, U2OS, 0.5 h) was 95 nM.

With `Cc1cc(C(N)=O)nn1-c1ccc2c(ccn2Cc2ccc(-c3ccc4cn(C)nc4c3)cc2)c1` [Example 1-10, 5-methyl-1-(1-(4-(2-methyl-2H-indazol-6-yl)benzyl)-1H-indol-5-yl)-1H-pyrazole-3-carboxamide] the AC50 (AKT; Homo sapiens, U2OS, 0.5 h) was 234 nM and the AC50 (FoxO3a; Homo sapiens, U2OS, 0.5 h) was 72 nM.

`Cc1cc(C(N)=O)nn1-c1ccc2c(ccn2Cc2ccc(-c3cnn(C)c3)cc2)c1` [Example 1-19, 5-methyl-1-(1-(4-(1-methyl-1H-pyrazol-4-yl)benzyl)-1H-indol-5-yl)-1H-pyrazole-3-carboxamide] gave an AC50 (AKT; Homo sapiens, U2OS, 0.5 h) of 500 nM and an AC50 (FoxO3a; Homo sapiens, U2OS, 0.5 h) of 140 nM.

For `Cc1cc(C(N)=O)nn1-c1ccc2c(ccn2Cc2ccc(N3CCN(C)CC3)cc2)c1` [Example 11-2, 5-methyl-1-(1-(4-(4-methylpiperazin-1-yl)benzyl)-1H-indol-5-yl)-1H-pyrazole-3-carboxamide], the AC50 (AKT; Homo sapiens, U2OS, 0.5 h) was 1060 nM and the AC50 (FoxO3a; Homo sapiens, U2OS, 0.5 h) was 341 nM.

`CC(=O)NCCCN1CCC(c2ccc(Cn3ccc4cc(-n5nc(C(N)=O)cc5C)ccc43)cc2)CC1` [Example 9, 1-(1-(4-(1-(3-acetamidopropyl)piperidin-4-yl)benzyl)-1H-indol-5-yl)-5-methyl-1H-pyrazole-3-carboxamide] gave an AC50 (FoxO3a; Homo sapiens, U2OS, 0.5 h) of 301 nM.

In the case of `Cc1cc(C(N)=O)nn1-c1ccc2c(ccn2Cc2ccc(C3CCN(CCCN)CC3)cc2)c1` [Example 8, 1-(1-(4-(1-(3-aminopropyl)piperidin-4-yl)benzyl)-1H-indol-5-yl)-5-methyl-1H-pyrazole-3-carboxamide], the AC50 (FoxO3a; Homo sapiens, U2OS, 0.5 h) is reported as 466 nM.

In the case of `Cc1cc(C(N)=O)nn1-c1ccc2c(c1)c(CCCO)cn2Cc1ccc([C@@H]2C[C@@H]3CN(C)C[C@@H]3C2)cc1` [Example 38, 1-(3-(3-hydroxypropyl)-1-(4-((3aR,5r,6aS)-2-methyloctahydrocyclopenta[c]pyrrol-5-yl)benzyl)-1H-indol-5-yl)-5-methyl-1H-pyrazole-3-carboxamide], the AC50 (FoxO3a; Homo sapiens, U2OS, 0.5 h) is reported as 81 nM.
